Experimental data reported in patent publication US7118895B2, “Process for producing aglycon by using diglycosidase and flavor-improved food containing the aglycon and converting agent to be used in the process” (Amano Enzyme Inc., priority 2000, dated 2006).

Experiments:
Crude diglycosidase = test: Examination of substrate concentration in the conversion into isoflavone aglycons by diglycosidase using soybean materials; format: biochemical, Penicillium multicolor IAM7153;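 on Decomposition efficiency: ratio of each glycoside/aglycon within its isoflavone family: percent of the isoflavone family total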
How it was run: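 Soybean materials (roasted soy flour, soymilk, defatted soybean, concentrated soy protein) at 2–30% (w/v) in 20 mM acetate pH 4.0 were reacted with crude diglycosidase at 55° C with shaking; enzyme solution added was 1.88 AU/mL. Samples taken at 0, 1, 3 and 6 h were ethanol-extracted and analyzed by HPLC.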

[1] = test system: β-Glucosidase derived from A. niger; test: Reactivity toward various isoflavone glycosides (HPLC); format: biochemical, Aspergillus niger; design: glucoside / aglycon: unit not given here; conditions: 55 °C, pH 4.0
How it was run: (§1)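 Enzymes at 0.75 AU/mL in pH 4.0 acetate buffer were reacted at 55° C with individual isoflavone glycosides (substrate stock 2 mM in methanol) in 20 mM acetate pH 4.0. Aglycone release followed at 0, 1, 3 and 6 h: ethanol-quenched, ODS HPLC with UV 260 nm, quantified against calibration curves.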

[2] = test system: Diglycosidase derived from P. multicolor; test: as above; format: biochemical, Penicillium multicolor; design: glucoside / aglycon: unit not given here; conditions: 55 °C, pH 4.0
How it was run: as §1

O=C(O)CC(=O)OC[C@H]1O[C@@H](Oc2ccc3c(=O)c(-c4ccc(O)cc4)coc3c2)[C@H](O)[C@@H](O)[C@@H]1O [malonyldaidzin, 6″-O-malonyldaidzin]
Decomposition efficiency: ratio of each glycoside/aglycon within its isoflavone family (Crude diglycosidase; roasted soy flour, substrate concentration 2%, heat treatment of enzyme no, reaction time 0 h): not detected
Decomposition efficiency: ratio of each glycoside/aglycon within its isoflavone family (Crude diglycosidase; roasted soy flour, substrate concentration 2%, heat treatment of enzyme no, reaction time 1 h): not detected
Decomposition efficiency: ratio of each glycoside/aglycon within its isoflavone family (Crude diglycosidase; roasted soy flour, substrate concentration 2%, heat treatment of enzyme no, reaction time 3 h): not detected
Decomposition efficiency: ratio of each glycoside/aglycon within its isoflavone family (Crude diglycosidase; roasted soy flour, substrate concentration 2%, heat treatment of enzyme no, reaction time 6 h): not detected
Decomposition efficiency: ratio of each glycoside/aglycon within its isoflavone family (Crude diglycosidase; roasted soy flour, substrate concentration 2%, heat treatment of enzyme yes, reaction time 6 h): not detected
Decomposition efficiency: ratio of each glycoside/aglycon within its isoflavone family (Crude diglycosidase; roasted soy flour, substrate concentration 5%, heat treatment of enzyme no, reaction time 0 h): not detected
Decomposition efficiency: ratio of each glycoside/aglycon within its isoflavone family (Crude diglycosidase; roasted soy flour, substrate concentration 5%, heat treatment of enzyme no, reaction time 1 h): not detected
Decomposition efficiency: ratio of each glycoside/aglycon within its isoflavone family (Crude diglycosidase; roasted soy flour, substrate concentration 5%, heat treatment of enzyme no, reaction time 3 h): not detected
Decomposition efficiency: ratio of each glycoside/aglycon within its isoflavone family (Crude diglycosidase; roasted soy flour, substrate concentration 5%, heat treatment of enzyme no, reaction time 6 h): not detected
Decomposition efficiency: ratio of each glycoside/aglycon within its isoflavone family (Crude diglycosidase; roasted soy flour, substrate concentration 5%, heat treatment of enzyme yes, reaction time 6 h): not detected
Decomposition efficiency: ratio of each glycoside/aglycon within its isoflavone family (Crude diglycosidase; roasted soy flour, substrate concentration 10%, heat treatment of enzyme no, reaction time 0 h): not detected
Decomposition efficiency: ratio of each glycoside/aglycon within its isoflavone family (Crude diglycosidase; roasted soy flour, substrate concentration 10%, heat treatment of enzyme no, reaction time 1 h): not detected
Decomposition efficiency: ratio of each glycoside/aglycon within its isoflavone family (Crude diglycosidase; roasted soy flour, substrate concentration 10%, heat treatment of enzyme no, reaction time 3 h): not detected
Decomposition efficiency: ratio of each glycoside/aglycon within its isoflavone family (Crude diglycosidase; roasted soy flour, substrate concentration 10%, heat treatment of enzyme no, reaction time 6 h): not detected
Decomposition efficiency: ratio of each glycoside/aglycon within its isoflavone family (Crude diglycosidase; roasted soy flour, substrate concentration 10%, heat treatment of enzyme yes, reaction time 6 h): not detected
Decomposition efficiency: ratio of each glycoside/aglycon within its isoflavone family (Crude diglycosidase; roasted soy flour, substrate concentration 20%, heat treatment of enzyme no, reaction time 0 h): not detected
Decomposition efficiency: ratio of each glycoside/aglycon within its isoflavone family (Crude diglycosidase; roasted soy flour, substrate concentration 20%, heat treatment of enzyme no, reaction time 1 h): not detected
Decomposition efficiency: ratio of each glycoside/aglycon within its isoflavone family (Crude diglycosidase; roasted soy flour, substrate concentration 20%, heat treatment of enzyme no, reaction time 3 h): not detected
Decomposition efficiency: ratio of each glycoside/aglycon within its isoflavone family (Crude diglycosidase; roasted soy flour, substrate concentration 20%, heat treatment of enzyme no, reaction time 6 h): not detected
Decomposition efficiency: ratio of each glycoside/aglycon within its isoflavone family (Crude diglycosidase; roasted soy flour, substrate concentration 20%, heat treatment of enzyme yes, reaction time 6 h): not detected
Decomposition efficiency: ratio of each glycoside/aglycon within its isoflavone family (Crude diglycosidase; roasted soy flour, substrate concentration 30%, heat treatment of enzyme no, reaction time 0 h): not detected
Decomposition efficiency: ratio of each glycoside/aglycon within its isoflavone family (Crude diglycosidase; roasted soy flour, substrate concentration 30%, heat treatment of enzyme no, reaction time 1 h): not detected
Decomposition efficiency: ratio of each glycoside/aglycon within its isoflavone family (Crude diglycosidase; roasted soy flour, substrate concentration 30%, heat treatment of enzyme no, reaction time 3 h): not detected
Decomposition efficiency: ratio of each glycoside/aglycon within its isoflavone family (Crude diglycosidase; roasted soy flour, substrate concentration 30%, heat treatment of enzyme no, reaction time 6 h): not detected
Decomposition efficiency: ratio of each glycoside/aglycon within its isoflavone family (Crude diglycosidase; roasted soy flour, substrate concentration 30%, heat treatment of enzyme yes, reaction time 6 h): not detected
Decomposition efficiency: ratio of each glycoside/aglycon within its isoflavone family (Crude diglycosidase; soymilk, substrate concentration 2%, heat treatment of enzyme no, reaction time 0 h): 32.2%
Decomposition efficiency: ratio of each glycoside/aglycon within its isoflavone family (Crude diglycosidase; soymilk, substrate concentration 2%, heat treatment of enzyme no, reaction time 1 h): 27.5%
Decomposition efficiency: ratio of each glycoside/aglycon within its isoflavone family (Crude diglycosidase; soymilk, substrate concentration 2%, heat treatment of enzyme no, reaction time 3 h): 9.9%
Decomposition efficiency: ratio of each glycoside/aglycon within its isoflavone family (Crude diglycosidase; soymilk, substrate concentration 2%, heat treatment of enzyme no, reaction time 6 h): 2.9%
Decomposition efficiency: ratio of each glycoside/aglycon within its isoflavone family (Crude diglycosidase; soymilk, substrate concentration 2%, heat treatment of enzyme yes, reaction time 6 h): 47.0%
Decomposition efficiency: ratio of each glycoside/aglycon within its isoflavone family (Crude diglycosidase; soymilk, substrate concentration 5%, heat treatment of enzyme no, reaction time 0 h): 53.6%
Decomposition efficiency: ratio of each glycoside/aglycon within its isoflavone family (Crude diglycosidase; soymilk, substrate concentration 5%, heat treatment of enzyme no, reaction time 1 h): 34.2%
Decomposition efficiency: ratio of each glycoside/aglycon within its isoflavone family (Crude diglycosidase; soymilk, substrate concentration 5%, heat treatment of enzyme no, reaction time 3 h): 15.9%
Decomposition efficiency: ratio of each glycoside/aglycon within its isoflavone family (Crude diglycosidase; soymilk, substrate concentration 5%, heat treatment of enzyme no, reaction time 6 h): 6.1%
Decomposition efficiency: ratio of each glycoside/aglycon within its isoflavone family (Crude diglycosidase; soymilk, substrate concentration 5%, heat treatment of enzyme yes, reaction time 6 h): 47.6%
Decomposition efficiency: ratio of each glycoside/aglycon within its isoflavone family (Crude diglycosidase; soymilk, substrate concentration 10%, heat treatment of enzyme no, reaction time 0 h): 53.4%
Decomposition efficiency: ratio of each glycoside/aglycon within its isoflavone family (Crude diglycosidase; soymilk, substrate concentration 10%, heat treatment of enzyme no, reaction time 1 h): 37.4%
Decomposition efficiency: ratio of each glycoside/aglycon within its isoflavone family (Crude diglycosidase; soymilk, substrate concentration 10%, heat treatment of enzyme no, reaction time 3 h): 20.5%
Decomposition efficiency: ratio of each glycoside/aglycon within its isoflavone family (Crude diglycosidase; soymilk, substrate concentration 10%, heat treatment of enzyme no, reaction time 6 h): 10.7%
Decomposition efficiency: ratio of each glycoside/aglycon within its isoflavone family (Crude diglycosidase; soymilk, substrate concentration 10%, heat treatment of enzyme yes, reaction time 6 h): 47.8%
Decomposition efficiency: ratio of each glycoside/aglycon within its isoflavone family (Crude diglycosidase; soymilk, substrate concentration 20%, heat treatment of enzyme no, reaction time 0 h): 53.6%
Decomposition efficiency: ratio of each glycoside/aglycon within its isoflavone family (Crude diglycosidase; soymilk, substrate concentration 20%, heat treatment of enzyme no, reaction time 1 h): 41.2%
Decomposition efficiency: ratio of each glycoside/aglycon within its isoflavone family (Crude diglycosidase; soymilk, substrate concentration 20%, heat treatment of enzyme no, reaction time 3 h): 21.5%
Decomposition efficiency: ratio of each glycoside/aglycon within its isoflavone family (Crude diglycosidase; soymilk, substrate concentration 20%, heat treatment of enzyme no, reaction time 6 h): 16.4%
Decomposition efficiency: ratio of each glycoside/aglycon within its isoflavone family (Crude diglycosidase; soymilk, substrate concentration 20%, heat treatment of enzyme yes, reaction time 6 h): 48.1%
Decomposition efficiency: ratio of each glycoside/aglycon within its isoflavone family (Crude diglycosidase; soymilk, substrate concentration 30%, heat treatment of enzyme no, reaction time 0 h): 53.5%
Decomposition efficiency: ratio of each glycoside/aglycon within its isoflavone family (Crude diglycosidase; soymilk, substrate concentration 30%, heat treatment of enzyme no, reaction time 1 h): 43.8%
Decomposition efficiency: ratio of each glycoside/aglycon within its isoflavone family (Crude diglycosidase; soymilk, substrate concentration 30%, heat treatment of enzyme no, reaction time 3 h): 29.7%
Decomposition efficiency: ratio of each glycoside/aglycon within its isoflavone family (Crude diglycosidase; soymilk, substrate concentration 30%, heat treatment of enzyme no, reaction time 6 h): 21.9%
Decomposition efficiency: ratio of each glycoside/aglycon within its isoflavone family (Crude diglycosidase; soymilk, substrate concentration 30%, heat treatment of enzyme yes, reaction time 6 h): 46.9%
Decomposition efficiency of daidzin family in defatted soybean (Crude diglycosidase; substrate concentration 2%, heat treatment of enzyme no, reaction time 0 h): 42.2
Decomposition efficiency of daidzin family in defatted soybean (Crude diglycosidase; substrate concentration 2%, heat treatment of enzyme no, reaction time 1 h): 35.2
Decomposition efficiency of daidzin family in defatted soybean (Crude diglycosidase; substrate concentration 2%, heat treatment of enzyme no, reaction time 3 h): 21.2
Decomposition efficiency of daidzin family in defatted soybean (Crude diglycosidase; substrate concentration 2%, heat treatment of enzyme no, reaction time 6 h): 16.5
Decomposition efficiency of daidzin family in defatted soybean (Crude diglycosidase; substrate concentration 2%, heat treatment of enzyme yes, reaction time 6 h): 38.1
Decomposition efficiency of daidzin family in defatted soybean (Crude diglycosidase; substrate concentration 5%, heat treatment of enzyme no, reaction time 0 h): 41.1
Decomposition efficiency of daidzin family in defatted soybean (Crude diglycosidase; substrate concentration 5%, heat treatment of enzyme no, reaction time 1 h): 37.7
Decomposition efficiency of daidzin family in defatted soybean (Crude diglycosidase; substrate concentration 5%, heat treatment of enzyme no, reaction time 3 h): 30.6
Decomposition efficiency of daidzin family in defatted soybean (Crude diglycosidase; substrate concentration 5%, heat treatment of enzyme no, reaction time 6 h): 21.0
Decomposition efficiency of daidzin family in defatted soybean (Crude diglycosidase; substrate concentration 5%, heat treatment of enzyme yes, reaction time 6 h): 38.1
Decomposition efficiency of daidzin family in defatted soybean (Crude diglycosidase; substrate concentration 10%, heat treatment of enzyme no, reaction time 0 h): 39.7
Decomposition efficiency of daidzin family in defatted soybean (Crude diglycosidase; substrate concentration 10%, heat treatment of enzyme no, reaction time 1 h): 39.5
Decomposition efficiency of daidzin family in defatted soybean (Crude diglycosidase; substrate concentration 10%, heat treatment of enzyme no, reaction time 3 h): 34.2
Decomposition efficiency of daidzin family in defatted soybean (Crude diglycosidase; substrate concentration 10%, heat treatment of enzyme no, reaction time 6 h): 29.0
Decomposition efficiency of daidzin family in defatted soybean (Crude diglycosidase; substrate concentration 10%, heat treatment of enzyme yes, reaction time 6 h): 37.0
aglycon ([1]; Reaction time 0 h): 0
glucoside ([1]; Reaction time 0 h): 100
aglycon ([1]; Reaction time 1 h): 4.5
glucoside ([1]; Reaction time 1 h): 95.5
aglycon ([1]; Reaction time 3 h): 9.3
glucoside ([1]; Reaction time 3 h): 90.7
aglycon ([1]; Reaction time 6 h): 16
glucoside ([1]; Reaction time 6 h): 84
aglycon ([2]; Reaction time 0 h): 0
glucoside ([2]; Reaction time 0 h): 100
aglycon ([2]; Reaction time 1 h): 50.8
glucoside ([2]; Reaction time 1 h): 49.2
aglycon ([2]; Reaction time 3 h): 60.1
glucoside ([2]; Reaction time 3 h): 39.9
aglycon ([2]; Reaction time 6 h): 61.5
glucoside ([2]; Reaction time 6 h): 38.5
